Data as given in US10550108B2, “Poly(ADP-ribose) polymerase 1 inhibitors structurally unrelated to NAD” (Institute for Cancer Research, priority 2014, dated 2020).
“Also recorded” adds a separate entry of the source.

test system: normal breast-derived cells HMEK; experiment: Cell survival assay (alamarBlue), normal cells; assay type: cell-based, human; details: 72 hr
Method: (§1) Normal cells and cancer-derived cells were plated at a density of 10^4 cells/well (100 μl) in a 96-well plate. On the next day, Olaparib, a NAD-mimetic, or 5F02, 4D11, 5A03, 5H03, 1C09, new non-NAD-like inhibitors, were added. Cells were grown for 72 hr. 20 μl/well of alamarBlue® reagent was added; fluorescence readings were taken.
(§2) The cytotoxic effects of treatment by classical inhibitor Olaparib and the new inhibitors was compared using breast cancer-derived cells BT474 and normal breast-derived cells HMEK.

| Compound | cytotoxicity to normal cells |
| --- | --- |
| O=C(c1cc(Cc2n[nH]c(=O)c3ccccc23)ccc1F)N1CCN(C(=O)C2CC2)CC1 [Olaparib] | killed both normal and cancer cells |

molecular target: PARP-1 (Homo sapiens, UniProt P09874); experiment: PARP-1 activation screening assay, 384-well ELISA plate coated with histone H4; details: pilot screen of ICCB Known Bioactives library; pADPr ELISA signal (absorbance at 650 or 450 nm as indicator of PARP-1 activity)
Sequence (P09874 whole entry): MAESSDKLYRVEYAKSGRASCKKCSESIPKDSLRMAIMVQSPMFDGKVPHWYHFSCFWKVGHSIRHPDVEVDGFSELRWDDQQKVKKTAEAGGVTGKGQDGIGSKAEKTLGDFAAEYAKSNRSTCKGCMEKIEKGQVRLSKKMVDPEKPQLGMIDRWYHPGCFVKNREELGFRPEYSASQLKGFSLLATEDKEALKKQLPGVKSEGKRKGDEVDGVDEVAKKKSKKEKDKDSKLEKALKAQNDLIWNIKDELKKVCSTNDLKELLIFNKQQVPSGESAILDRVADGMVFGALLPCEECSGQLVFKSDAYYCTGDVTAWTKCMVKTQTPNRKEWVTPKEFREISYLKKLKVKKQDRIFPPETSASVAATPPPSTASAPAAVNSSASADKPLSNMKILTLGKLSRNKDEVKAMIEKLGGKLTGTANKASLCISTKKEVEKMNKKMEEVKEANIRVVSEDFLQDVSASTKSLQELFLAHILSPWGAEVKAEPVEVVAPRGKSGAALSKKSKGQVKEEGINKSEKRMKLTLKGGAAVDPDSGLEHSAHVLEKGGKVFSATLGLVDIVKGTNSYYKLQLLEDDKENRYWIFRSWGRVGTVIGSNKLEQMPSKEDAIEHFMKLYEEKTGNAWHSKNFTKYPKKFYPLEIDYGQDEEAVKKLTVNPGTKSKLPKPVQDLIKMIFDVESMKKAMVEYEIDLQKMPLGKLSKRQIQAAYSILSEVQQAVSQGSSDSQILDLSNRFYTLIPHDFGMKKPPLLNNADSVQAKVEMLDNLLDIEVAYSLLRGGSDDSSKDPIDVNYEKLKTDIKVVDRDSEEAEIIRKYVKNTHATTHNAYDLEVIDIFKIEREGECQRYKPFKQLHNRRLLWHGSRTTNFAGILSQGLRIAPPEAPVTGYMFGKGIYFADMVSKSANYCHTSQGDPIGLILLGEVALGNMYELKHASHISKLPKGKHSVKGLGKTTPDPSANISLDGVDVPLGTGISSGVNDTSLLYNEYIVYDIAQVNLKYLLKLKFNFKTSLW
Source text: The screening platform included a PARP1 activation assay in plates coated with histone H4. PARP1 reactions were set up in each well of the plate in the presence of a single small molecule test compound or a positive or negative control compound. The product of the reaction between PARP1 and H4, poly-ADP-ribose, was then quantified, with absorbance at 650 nm or 450 nm used as an indicator of PARP1 activity (FIG. 2A).
A PARP-1 activation screening assay was designed using a 384-well ELISA plate coated with histone H4 protein-activator. PARP-1 reactions were set up in each well in presence of single a small molecule compound or a positive and a negative control. […] The product of these reactions, poly-(ADP)-ribose, was quantified. Absorbance at 650 or 450 nm was used as an indicator of PARP-1 activity (FIG. 2A). As the test library for this screening assay, the ICCB Known Bioactives library of 480 compounds was used, which includes all popular PARP-1 inhibitors.

| Compound | Value |
| --- | --- |
| CN(C)C[C@H](O)Cn1c2ccc(Br)cc2c2cc(Br)ccc21 (racemic) [Wiskostatin] | 1.90 |
| O=c1[nH]c2ccccc2c2ccccc12 [6(5H)-Phenanthridinone] | 0.05 |
| Br.NC1CCc2cc(O)c(O)cc2C1 (stereo not drawn) [6,7-ADTN HBr] | 0.50 |
| N#C/C(=C\c1ccc(O)c(O)c1)C(N)=S [AG213 (Tyrphostin 47)] | 1.28 |
| CCOC(=O)CN1C(=O)CC(C[C@@H](O)[C@@H]2C[C@@H](C)C[C@H](C)C2=O)CC1=O [Cycloheximide-N-ethylethanoate] | 1.89 |
| C=C1[C@@H](C)[C@H]2[C@H](Cc3ccccc3)NC(=O)[C@]23OC(=O)/C=C/[C@H](O)CCC[C@@H](C)C/C=C/[C@H]3[C@@H]1O [Cytochalasin B] | 2.03 |
| C=C1O[C@@](CO)(n2cnc3c(N)ncnc32)[C@H](O)[C@@H]1O [Decoyinine] | 2.00 |
| [Cl-].c1ccc2c(c1)[I+]c1ccccc1-2 [Diphenyleneiodonium Cl] | 0.20 |
| CNc1ccc2oc(C[C@H]3O[C@@]4(CC[C@H]3C)O[C@H]([C@H](C)C(=O)c3ccc[nH]3)[C@H](C)C[C@H]4C)nc2c1C(=O)O [Formula A-23187, A-23187] | 1.22 |
| NCCNS(=O)(=O)c1cccc2cnccc12 [Formula H9] | 0.05 |
| CC(C)Cn1c(=O)n(C)c(=O)c2[nH]cnc21 [IBMX] | 0.94 |
| CN(C)C(=O)C(CCN1CCC(O)(c2ccc(Cl)cc2)CC1)(c1ccccc1)c1ccccc1 [Loperamide] | 2.34 |
| CC1(C)Oc2ccc(C#N)cc2[C@@H](OC2=CC(=O)CC2)[C@@H]1O [PCO-400] | 2.01 |
| COc1cccc(-c2cc(=O)c3ccccc3o2)c1N [PD 98059] | 0.69 |
| CC[N+](C)(CC)CCC[n+]1c(-c2ccccc2)c2cc(N)ccc2c2ccc(N)cc21.[I-].[I-] [Propidium iodide] | 0.18 |
| O=c1c(O)c(-c2ccc(O)c(O)c2)oc2cc(O)cc(O)c12 [Quercetin] | 0.18 |

test system: breast cancer-derived cells BT474; experiment: Cell survival assay (alamarBlue), cancer-derived cells; assay type: cell-based, human; details: 72 hr
Method: as §1, §2

| Compound | cytotoxic effect on cancer-derived cells |
| --- | --- |
| O=C(c1cc(Cc2n[nH]c(=O)c3ccccc23)ccc1F)N1CCN(C(=O)C2CC2)CC1 [Olaparib] | eliminate cancer-derived cells at similar concentrations; also recorded: killed both normal and cancer cells |
